What was measured:
Type in all cases: cell-based, rat
[1] = tested on: VM-NSCs; assay: DA neuron differentiation (TH+ cell yield) of in vitro expanded VM-NSCs
Protocol: NSCs were cultured from rat embryo VMs (Sprague Dawley) at embryonic day 12 (E12) on 6-cm dishes or 24-well plates pre-coated with 15 μg/ml poly-L-ornithine (PLO; Sigma)/1 ug/ml fibronectin (FN; Sigma, St. Louis, Mo.) in serum-free N2 medium. NSCs were induced to proliferate by the mitogenic action of basic fibroblast growth factor (bFGF, 20 ng/ml, R&D Systems, Minneapolis, Minn.). The proliferating VM-NSCs cultured in 6-cm dishes were passaged at every 4th day in mitogen-supplemented medium with or without Vitamin C (VC; Sigma; 200 μM), glutathione reduced form (GSH; Sigma; 200 μM), vitamin E (alpha-tocopherol; Sigma; 200 μM), or N-acetylcysteine (NAc; Sigma; 100 μM). The expanded NSCs at the last day of each passage were induced to differentiate by withdrawing the mitogen and antioxidants from the media (for 2-16 days). Human NSC cultures were derived by in vitro differentiation of hESCs (H9) and cultured as described in the following reference. [Rhee, Y. H., Ko, J. Y., Chang, M. Y., Yi, S. H., Kim, D., Kim, C. H., Shim, J. W., Jo, A. Y., Kim, B. W., Lee, H., et al. (2011). Protein-based human iPS cells efficiently generate functional dopamine neurons and can treat a rat model of Parkinson disease. The Journal of clinical investigation 121, 2326-2335]. The human NSCs were expanded in ITS media supplemented with bFGF (20 ng/ml) in the presence or absence of VC for two NSC passages. Differentiation of the passaged human NSCs was induced by withdrawal of bFGF and VC in ITS supplemented with brain-derived neurotrophic factor (20 ng/ml; R&D Systems), glial cell line derived neurotrophic factor (20 ng/ml; R&D Systems), and dibutyryl cAMP (0.5 mmol/1; Sigma). Cultures were maintained at 37° C. in humidified 5% CO2 incubators.
(§1) Cultured cells and cryosectioned brain slices were fixed with 4% paraformaldehyde (PFA), and blocked for 40 minutes in blocking solution (Blocking solution: 1% BSA+0.3% Triton X-100). For 5hmC and 5mC staining, the fixed cells were incubated with 2 N HCl for 20 minutes before the blocking reaction. The samples were incubated overnight at 4° C. in the blocking solution containing the primary antibodies listed in Supplemental Table 1. Secondary antibodies tagged with Alexa 488 (1:200, Invitrogen, Carlsbad, Calif.) and Cy3 (1:200, Jackson Immunoresearch Laboratories, West Grove, Pa.) were applied. Stained samples were mounted in Vectashield medium containing 40,6-diamidino-2-phenylindole (DAPI; Vector Laboratories, West Grove, Pa.) and analysed under an epifluorescence (Leica, Wetzlar, Germany) or confocal microscope (Leica TSP SP5).
Immunostained cells were counted in 10-20 random areas of each culture coverslip using an eyepiece grid at a magnification of 200×. Data are expressed as the mean±SEM of three to eight independent cultures. […]

[2] = tested on: TH+ DA neurons differentiated from VM-NSCs; assay: Morphologic and functional maturation of DA neurons; conditions: VC during expansion
Protocol: To estimate morphological maturation, total fiber lengths emanating from TH+DA neuronal cells were measured. The pre-synaptic activity of DA neurons was determined by measuring the levels of DA neurotransmitter released in the differentiated VM-NSC cultures. Media incubated for 2 days (differentiation day 13-15) were collected and used in the DA level determinations using an ELISA kit (BA E-5300, LDN). In addition, DA release evoked by membrane depolarization was estimated by incubating the cultures (at differentiation day 15) in fresh N2 media in the presence or absence of 56 mM KCl for 30 min. The evoked DA release was calculated by subtracting the DA release without KCl from the DA level with KCl.

[3] = tested on: global 5hmC/5mC and H3K27m3/H3K9m3 levels in VM-NSCs; assay: Global epigenetic code determination (dot blot, western blot, immunocytochemistry)
Protocol: as §1
DNA dot blot analysis for 5hmC/5mC was performed as described in the following reference. [He, X. B., Kim, M., Kim, S. Y., Yi, S. H., Rhee, Y. H., Kim, T., Lee, E. H., Park, C. H., Dixit, S., Harrison, F. E., et al. (2015). Vitamin C facilitates dopamine neuron differentiation in fetal midbrain through TET1- and JMJD3-dependent epigenetic control manner. Stem Cells 33, 1320-1332]. Briefly, genomic DNA was extracted and quantified. Genomic DNA (80 ng) was spotted on nitrocellulose membranes, air dried, and exposed in UV for 20 minutes. After blocking with 5% bovine serum albumin (BSA)/Tris-buffered saline-Tween 20 at room temperature for 2 hours, the membrane was incubated in anti-5hmC (Active Motif, Carlsbad, Calif.) and anti-5mC (Abcam, Cambridge, UK) antibodies at 4° C. overnight. Western-blots for determining global histone modification changes were performed as described in the following reference. [Rumbaugh, G., and Miller, C. A. (2011). Epigenetic changes in the brain: measuring global histone modifications. Methods Mol Biol 670, 263-274]. […] Positive bands were detected and captured by ChemiDoc (Bio-Rad, Hercules, Calif.), and the intensities of the bands were quantified using ImageJ software (http://imagej.nih.gov/ij).

O=C1O[C@H]([C@@H](O)CO)C(O)=C1O [VC, L-ascorbic acid]
expression of other DA phenotypes (VMAT2, AADC and DAT) in TH+ cells ([1]; P1, VC during expansion, differentiated 12 days without VC): Virtually all
TH+ cell yields (% of total DAPI+ cells) ([1]; VC 200 uM during expansion, P1 cultures, differentiated without VC, D6): 10.85±1.2%
TH+ DA neuronal yields ([1]; VC during expansion, P2 cultures, differentiated without VC): 1.22±0.1%
prevention of DA neuron loss in passaged cultures ([1]; antioxidant during expansion for 8 days (up to P1), differentiation without antioxidants): prevention of DA neuron loss
total fiber lengths per TH+ DA neuron ([2]; D15): 164 um
presynaptic DA neuronal function measured by DA release ([2]; medium 48 hr (D13-15) and KCl evoked 30 min): greater
synapsin+ puncta in TH+ DA neuron neurites ([2]; vs untreated control): more abundantly localized
global 5mC levels ([3]; D0): significant decrease
global levels of H3K27m3 and H3K9m3 ([3]; D0): reduced
global 5hmC levels ([3]; D0, immunoblotting and immunocytochemical analyses): greatly increased

From patent US20190183939A1, “CELL THERAPY USING MIDBRAIN-TYPE NEURAL STEM CELLS TREATED WITH VITAMIN C” (INDUSTRY-UNIVERSITY COOPERATION FOUNDATION HANYANG …, priority 2017, published 2019)
